Test results from patent US20110111044A1, “NANOPARTICLE COMPOSITIONS FOR NUCLEIC ACIDS DELIVERY SYSTEM” (ENZON PHARMACEUTICALS, INC., priority 2008, published 2011).

Columns and labels:
ErbB3 mRNA [1] = test: ErbB3 mRNA KD in tumor of 15PC3 human prostate cancer xenografted mice; assay type: in vivo; conditions: 45 mg/kg i.v. q3d×4 (G8)
Procedure: (§1) The in vivo efficacy of nanoparticles described herein was evaluated in human prostate cancer xenografted mice. The 15PC3 human prostate tumors were established in nude mice by subcutaneous injection of 5×10^6 cells/mouse into the right auxiliary flank. When tumors reached the average volume of 100 mm^3, the mice were randomly grouped 5 mice per group. The mice of each group were treated with nanoparticle encapsulating antisense ErbB3 oligonucleotides (Sample NP5) or corresponding naked oligonucleotides (Oligo 2). The nanoparticles were given intravenously (i.v.) at 15 mg/kg/dose, 5 mg/kg/dose, 1 mg/kg/dose, or 0.5 mg/kg/dose at q3d×4 for 12 days. The dosage amount is based on the amount of oligonucleotides in the nanoparticles. The naked oligonucleotides were given intraperitoneally (i.p.) at 30 mg/kg/dose or intravenously at 25 mg/kg/dose or 45 mg/kg/dose at q3d×4 for 12 days. The mice were sacrificed twenty four hours after the final dose. Plasma samples were collected from the mice and stored at −20° C. Tumor and liver samples were also collected from the mice. The samples were analyzed for mRNA KD.

ErbB3 mRNA [2] = test: ErbB3 mRNA KD in liver of 15PC3 human prostate cancer xenografted mice; assay type: in vivo; conditions: 25 mg/kg/dose i.v. q3d×4 (G7)
Procedure: as §1

In the case of “Oligo-2: antisense ErbB3 LNA, 5′-TAGcctgtcacttmCTmC-3′, phosphorothioate linkage; naked oligonucleotide (antisense 5'-TAGcctgtcactt^{m}CT^{m}C-3'; LNA, as printed in the source, key not given here)”, the “ErbB3 mRNA expression inhibited in tumor” value (ErbB3 mRNA [1]) is reported as “about 37%” and the “ErbB3 mRNA KD activity in liver” value (ErbB3 mRNA [2]) is reported as “about 87%”.
